Test [1] deals with T1, NSD2 (both long and short isoforms) (Homo sapiens, UniProt O96028).
T1 sequence (O96028 211-350 limits assumed): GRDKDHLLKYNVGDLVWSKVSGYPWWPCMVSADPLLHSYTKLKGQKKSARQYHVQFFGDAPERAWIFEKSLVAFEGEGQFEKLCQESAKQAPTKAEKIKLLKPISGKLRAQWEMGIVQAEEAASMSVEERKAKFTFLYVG
The test is described as follows: NSD2 degradation by immunoblotting in ALL cell lines RPMI-8402 and SEM (NSD2 E1099K). The format is cell-based. Conditions: for Dmax / DC50: 24 h. The procedure:
As previous studies have shown that ALL cell lines with NSD2 gain-of-function mutation are more dependent on NSD2 regarding H3K36me2 level and cell proliferation,[7],[8] we further characterized LLC0424 in ALL cell lines with NSD2 E1099K gain-of-function mutation (RPMI-8402 and SEM). We first treated these cells with LLC0424 with different concentrations for 24 h. […] In addition, we compared the degradation efficiency of LLC0424 with the two previously published NSD2 degraders 6 and 7 at different concentrations and time points.
After treatment, the cultured cells were collected and rinsed with phosphate-buffered saline (PBS) in room temperature. The cells were treated with RIPA buffers (ThermoFisher Scientific) supplemented with Halt Protease and Phosphatase Inhibitor Cocktail (ThermoFisher Scientific). After sonication and centrifugation, the total amount of protein in the cell lysates was measured by Pierce Bovine Serum Albumin Standard Pre-Diluted Set (ThermoFisher Scientific). After mixed with LDS-sample buffer (Invitrogen) supplemented with Sample Reducing Agent (Invitrogen) and heated in 70 °C for 10 min, equal amount of protein was loaded into NuPAGE 4–12%, Bis-Tris Protein Gel (ThermoFisher Scientific) or NuPAGE 3–8%, Tris-Acetate Protein Gel (ThermoFisher Scientific), and blotted with primary antibodies. After incubated with HRP-conjugated secondary antibodies, the membranes were developed with ECL Prime Western Blotting Detection Reagent (cytiva) and imaged on Odyssey Fc Imager (LiCOR Biosciences).
For orientation: In western blotting, separated proteins are transferred to a membrane and probed.

The test system of another test is SEM cells. Description: Cell viability assay (CellTiter-Glo, 7 days), SEM. In kind it is cell-based, human. The following applies: Homo sapiens, 168 h, read-out: IC50 (growth, cell viability). The procedure: Cells were plated in 50 μL of the corresponding media in 96-well plates. A 2-fold dilution series of 2* concentrated LLC0424 was prepared in a medium with the highest concentration being 60 μM. Then 50 μL of the 2× compound-containing mixture was added to each well with 6 replicates for each concentration, reaching 1× concentration, with the highest concentration being 30 μM. The plate was incubated for 7 days. At the end point, the CellTiter-Glo assay (Promega) was then performed according to the manufacturer’s instruction to determine cell proliferation. The luminescence signal intensity of each well was acquired on an Infinite M1000Pro microplate reader and the data was analyzed using GraphPad Prism software (GraphPad Software).
(In general: Cellular ATP, detected with luciferase, serves as a proxy for viable cell number.)

pIC50: −log10 of the molar value.

The Dmax is the greatest extent of degradation seen. Broadly, the DC50 is the concentration at which degradation of the target reaches its halfway point. By pIC50 is commonly meant the negative decadic logarithm of the IC50, by convention in mol/L. With `O=C1CCC(N2C(=O)c3ccc(N4CCC(NC(=O)c5ccc(NC(=O)c6ccc(CN(C(=O)c7ccc8c(c7)OCC(=O)N8)C7CC7)cc6)cc5)CC4)cc3C2=O)C(=O)N1` (centres unmarked) [compound 10l, N-Cyclopropyl-N-(4-((4-((1-(2-(2,6-dioxopiperidin-3-yl)-1,3-dioxoisoindolin-5-yl)piperidin-4-yl)carbamoyl)phenyl)carbamoyl)benzyl)-3-oxo-3,4-dihydro-2H-benzo[b][1,4]oxazine-7-carboxamide], the maximal degradation (Dmax) is greater than 96% in test [1] (RPMI 8402, RPMI-8402 cells) and greater than 78% in test [1] (RPMI 8402, SEM cells). Besides, the “time at which NSD2 degradation started” value in test [1] (RPMI-8402 and SEM cells, 2 μM) was 4 h. The “time to significant NSD2 degradation” value in test [1] (RPMI-8402 and SEM cells, 2 μM) is reported as no more than 8 h. The “NSD2 degradation, comparison of degraders” value in test [1] (RPMI-8402 and SEM cells, 0.5 and 2 μM for 24 h or 2 μM for 12 and 24 h) is recorded as “significant NSD2 degradation”. Besides, the DC50 is 20 nM in test [1] (RPMI-8402 cells) and 110 nM in test [1] (SEM cells). Moreover, the pIC50 in the test on SEM cells is 5.45.
